Measured values taken from PubChem BioAssay (NCI).
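Grown in 96-well plates, cells were treated for 48 hours with each compound at five concentrations. Insufficient inhibition: endpoint recorded as highest concentration tested. GI50: concentration for 50% inhibition of growth. The concentration for full growth arrest is given as TGI.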

Experiments:
Experiment in all cases: DTP human tumour cell line panel, 48 h
[1] = test system: NCI/ADR-RES ovarian
[2] = test system: RPMI-8226 leukemia
[3] = test system: DU-145 prostate
[4] = test system: HCC-2998 colon
[5] = test system: UACC-62 melanoma
[6] = test system: SF-539 CNS
[7] = test system: SK-OV-3 ovarian
[8] = test system: OVCAR-4 ovarian
[9] = test system: SNB-75 CNS
[10] = test system: T-47D breast
[11] = test system: MDA-MB-435
[12] = test system: UO-31 renal
[13] = test system: EKVX NSCLC
[14] = test system: HT29 colon
[15] = test system: LOX IMVI melanoma
[16] = test system: SNB-19 CNS
[17] = test system: SK-MEL-28 melanoma
[18] = test system: SR leukemia
[19] = test system: MCF7 breast
[20] = test system: HL-60(TB) leukemia
[21] = test system: M14 melanoma
[22] = test system: SF-268 CNS
[23] = test system: OVCAR-3 ovarian
[24] = test system: A549 NSCLC
[25] = test system: IGROV1 ovarian
[26] = test system: HCT-15 colon
[27] = test system: HS 578T breast
[28] = test system: CCRF-CEM leukemia
[29] = test system: NCI-H23 lung
[30] = test system: SW-620 colon
[31] = test system: MALME-3M melanoma
[32] = test system: MDA-MB-231 breast
[33] = test system: OVCAR-5 ovarian
[34] = test system: MOLT-4 leukemia
[35] = test system: COLO 205 colon
[36] = test system: ACHN renal
[37] = test system: NCI-H460 lung
[38] = test system: 786-0 renal
[39] = test system: TK-10 renal
[40] = test system: HCT-116 colon
[41] = test system: NCI-H226 lung
[42] = test system: KM12 colon
[43] = test system: CAKI-1 renal
[44] = test system: OVCAR-8 ovarian
[45] = test system: U251 CNS
[46] = test system: SN12C renal
[47] = test system: PC-3 prostate
[48] = test system: SK-MEL-5 melanoma
[49] = test system: HOP-92 NSCLC
[50] = test system: SK-MEL-2 melanoma
[51] = test system: BT-549 breast
[52] = test system: A498 renal
[53] = test system: SF-295 CNS
[54] = test system: K-562 leukemia
[55] = test system: UACC-257 melanoma

## COc1cc(-c2nccc3[nH]c(-c4cccc5[nH]ccc45)nc23)cc(OC)c1OC
[1]
  GI50: < 0.01 µM
  TGI: 18.1 µM
[2]
  GI50: < 0.01 µM
  TGI: 2.91 µM
[3]
  GI50: < 0.01 µM
  TGI: 15.6 µM
[4]
  GI50: < 0.01 µM
  TGI: 2.28 µM
[5]
  GI50: < 0.01 µM
  TGI: 20.9 µM
[6]
  GI50: < 0.01 µM
  TGI: 0.0139 µM
[7]
  GI50: < 0.01 µM
  TGI: 14.8 µM
[8]
  GI50: < 0.01 µM
  TGI: 16.2 µM
[9]
  GI50: < 0.01 µM
  TGI: 16.5 µM
[10]
  GI50: 4.94 µM
  TGI: 27.3 µM
[11]
  GI50: < 0.01 µM
  TGI: < 0.01 µM
[12]
  GI50: 0.124 µM
  TGI: 16.2 µM
[13]
  GI50: 0.0186 µM
  TGI: 22 µM
[14]
  GI50: < 0.01 µM
  TGI: 1.26 µM
[15]
  GI50: < 0.01 µM
  TGI: 5.98 µM
[16]
  GI50: < 0.01 µM
  TGI: 20.6 µM
[17]
  GI50: 0.0347 µM
  TGI: 15.3 µM
[18]
  GI50: < 0.01 µM
  TGI: 10.4 µM
[19]
  GI50: < 0.01 µM
  TGI: 14.4 µM
[20]
  GI50: < 0.01 µM
  TGI: < 0.01 µM
[21]
  GI50: < 0.01 µM
  TGI: 10.1 µM
[22]
  GI50: < 0.01 µM
  TGI: 16 µM
[23]
  GI50: < 0.01 µM
  TGI: 11 µM
[24]
  GI50: < 0.01 µM
  TGI: 1.78 µM
[25]
  GI50: < 0.01 µM
  TGI: 23.2 µM
[26]
  GI50: < 0.01 µM
  TGI: 12 µM
[27]
  GI50: < 0.01 µM
  TGI: 23.9 µM
[28]
  GI50: < 0.01 µM
  TGI: 12 µM
[29]
  GI50: < 0.01 µM
  TGI: 19.1 µM
[30]
  GI50: < 0.01 µM
  TGI: 5.13 µM
[31]
  GI50: 2.71 µM
  TGI: 15.9 µM
[32]
  GI50: < 0.01 µM
  TGI: 17.1 µM
[33]
  GI50: 3.89 µM
  TGI: 27.6 µM
[34]
  GI50: < 0.01 µM
  TGI: 13.2 µM
[35]
  GI50: < 0.01 µM
  TGI: < 0.01 µM
[36]
  GI50: < 0.01 µM
  TGI: 11.6 µM
[37]
  GI50: < 0.01 µM
  TGI: 1.11 µM
[38]
  GI50: < 0.01 µM
  TGI: 2.92 µM
[39]
  GI50: 12.1 µM
  TGI: 24.8 µM
[40]
  GI50: < 0.01 µM
  TGI: 0.0202 µM
[41]
  GI50: 4.06 µM
  TGI: 22.5 µM
[42]
  GI50: < 0.01 µM
  TGI: 13.4 µM
[43]
  GI50: < 0.01 µM
  TGI: 14.6 µM
[44]
  GI50: < 0.01 µM
  TGI: 14.1 µM
[45]
  GI50: < 0.01 µM
  TGI: 13 µM
[46]
  GI50: < 0.01 µM
  TGI: 18.1 µM
[47]
  GI50: < 0.01 µM
  TGI: 15.7 µM
[48]
  GI50: < 0.01 µM
  TGI: 0.0108 µM
[49]
  GI50: < 0.01 µM
  TGI: 19 µM
[50]
  GI50: < 0.01 µM
  TGI: 23.5 µM

## CCN(CC)CCNC(=O)c1cc(Cl)c(N)cc1OC
[51]
  GI50: 82.3 µM
[52]
  GI50: 11.1 µM
  TGI: 40.1 µM
[9]
  GI50: 50.2 µM
[12]
  GI50: 99.1 µM
[14]
  GI50: 20.8 µM
  TGI: 38.7 µM
[53]
  GI50: 25.3 µM
  TGI: 44.2 µM
[37]
  GI50: 23.5 µM
  TGI: 45.8 µM
[54]
  GI50: 56.5 µM
[44]
  GI50: 28.4 µM
  TGI: 46.2 µM
[55]
  GI50: 13.9 µM
  TGI: 19.4 µM
[48]
  GI50: 99.6 µM
